# Measurements from patent publication US20090232748A1 (ViraTox, L.L.C., priority 2003, published 2009).
# Read-outs that look alike come from different tables or passages of the source.
# Experiments:
# CrFK cell culture = assay: Cell toxicity / cytopathic effect on host cells in the FIP-2 corona virus test; format: cell-based
# Source text: (§1) Untreated virus served as controls. […] They were then observed microscopically for CPE inhibition, reporting titers as TCID 50/ml, also expressed as plaque forming units (pfu's). The corrected virus titer (# positives×dilution) is reported in log/ml. Virucidal activity is thus defined as the number of logs reduction of virus titer between the test article and the control (Reed and Muench, Am. J. Hyg. 27:493-497, 1938).
# [1] = test system: Feline Infectious Peritonitis Type 2 (“FIP Type 2”) corona virus; assay: Virucidal bioassay: FIP-2 corona virus suspension exposed to test article, then titrated in CrFK cell culture (TCID50, Reed and Muench); format: cell-based, Feline Infectious Peritonitis Type 2 corona virus; settings: for FIP-2 Titer / % Reduction / Reduction in Titer: 300 seconds exposure; for FIP-2 Titer: control titer 6.70 logs/ml
# Source text: as §1
# pH of acid solutions = format: physicochemical; settings: at 0.1%
# [2] = test system: MDCK (NBL-2)5 (ATCC type CCL-34) cell culture
# [3] = test system: influenza A/Equi 2?Miami 1/63, ATCC VR517; assay: Virucidal assay: influenza virus exposed to CPC solutions, titrated in MDCK cell culture (Reed and Muench); format: cell-based, Orthomyxoviridie virus (influenza A/Equi 2)
# FeLV retrovirus = settings: for reduction in the viral titer: 300 seconds, titer 6.0 logs/ml
# Procedure: (§2) FeLV retrovirus was gown in cell culture to a titer of 6.0 logs/ml.
# (§3) Briefly, virus suspensions were exposed to three concentrations of CPC, 0.025%, 0.05%, and 0.10%, for 300 seconds. Untreated virus served as controls. At the end of the exposure, the virus was titrated in CrFK cell culture. Viral titration was accomplished at each test article concentration by seeding 0.1 ml of a serial dilution of treated virus to the CrFK cell culture. Serial dilutions were prepared from 10^−1 to 10^−8 of the original virus concentration, or five million/ml (6.7 log units) and each dilution then placed in each of four wells (replicates) of a 96 well microplate. The inoculated cells (80 μl per well) are then incubated at 37° C. in a CO2 incubator for five days.
# [4] = test system: CrFK (ATCC type CCL-94) cell culture; assay: Cytotoxicity of CPC in the FeLV test
# Procedure: as §2, §3
smiles,measurement,setting,value
"Oc1cc(Cl)ccc1Oc1ccc(Cl)cc1Cl [Triclosan, triclosan]",cellular toxicity,"CrFK cell culture; three concentrations as employed with CPC (0.025%, 0.05%, 0.10%)",cellular toxicity at all three levels
same,viral reduction,"[1]; all three levels (0.025%, 0.05%, 0.10%)",no viral reduction
CC(=O)O [acetic acid],pH,pH of acid solutions,2.3
O=C(O)CC(O)(CC(=O)O)C(=O)O [citric acid],pH,pH of acid solutions,2.3
same,cytotoxic,[2]; acid solution at 0.1%,neither solution was cytotoxic
"CCCCCCCCCCCCCCCC[n+]1ccccc1 [CPC, Cetylpyridinium chloride]",cytotoxic affects,[2]; test solutions containing 0.025% CPC and 0.1% citric acid,no observed cytotoxic affects
same,reduction to the virus titers,[3]; 0.025% (weight/volume) CPC with 0.1% citric acid (weight/volume),greater than 3.5 log
same,reduction to the virus titers,[3]; 0.05% (weight/volume) CPC with 0.1% citric acid (weight/volume),greater than 3.5 log
same,adverse cytopathic effects,"CrFK cell culture; 0.025% in solution, five minutes",without adverse cytopathic effects
same,FIP-2 Titer,[1]; CPC 0.025%,3.30 logs/ml
same,% Reduction,[1]; CPC 0.05%,99.97%
same,Reduction in Titer,[1]; CPC 0.05%,>3.20 logs
same,FIP-2 Titer,[1]; CPC 0.05%,<3.50 logs/ml
same,% Reduction,[1]; CPC 0.10%,99.97%
same,Reduction in Titer,[1]; CPC 0.10%,>3.20 logs
same,FIP-2 Titer,[1]; CPC 0.10%,<3.50 logs/ml
same,reduction in the viral titer,FeLV retrovirus; CPC 0.025% in conjunction 0.1% citric acid,greater than 3.5 logs/ml
same,reduction in the viral titer,FeLV retrovirus; CPC 0.025% without citric acid,greater than 3.5 logs/ml
same,reduction of the FeLV virus,"FeLV retrovirus; all three levels of CPC (0.025%, 0.05%, 0.10%) with or without citric acid at 0.1%",100%
same,cytotoxic,[4]; CPC 0.025%,not cytotoxic
same,cytotoxic,[4]; CPC 0.05%,cytotoxic
same,cytotoxic,[4]; CPC 0.1%,cytotoxic
